Publication PMC8868297, “Stapling of Peptides Potentiates the Antibiotic Treatment of Acinetobacter baumannii In Vivo” (Antibiotics, 2022)
Read-outs that look alike come from different tables or passages of the source. Bridge positions count the residues as written; N and C are the ends. Square brackets hold non-standard residues; d marks the D form. Peptide text beside a SMILES is read from it. R8 = C=CCCCCCC[C@@](C)(N)C(=O)O; S5 = C=CCCC[C@](C)(N)C(=O)O

Columns and labels:
[1] = system: A. baumannii 1757; assay: Zebrafish larvae infection model; conditions: rifampicin / erythromycin experiment (Table S8); infected larvae, caudal vein injection, five days post infection; mean of three independent experiments
Method: Transparent Casper zebrafish (Danio rerio) larvae were infected and treated according to protocols described by Van der Sar et al. and Bernard et al. [43, 44]. In short, zebrafish larvae collected from a laboratory-breeding colony kept at 24 °C and a 12:12 h dark/light regime. Larvae were selected based on morphology according to hours post fertilization (hpf) and kept at 28 °C. All protocols followed the international guidelines on the protection of animals used for scientific purposes specified by the EU Directive 2010/63/EU, which allows zebrafish larvae to be used up to the moment of free-living (5–7 dpf). Larvae were dechorionated at 28 hpf and anaesthetized in 0.2% tricaine methanesulfonate (MS222, Fluka A-5040). Larvae were individually infected with 1 nL, containing approximately 100–150 CFU (1–1.5 CFU/mL), of Gram-negative bacteria via microinjection of the caudal vein as described previously [33]. One hour post infection, larvae were treated with cationic (stapled) peptides, antibiotics or a combination of the two via another microinjection of 1 nL in the caudal vein. […] Zebrafish larvae were kept at 30 °C throughout the experiment and survival of the larvae, based on heartbeat, was determined every 24 h for 5 days.

[2] = system: A. baumannii 1757; assay: MIC / checkerboard synergy assay (also with added LPS); type: cell-based, Acinetobacter baumannii; conditions: for MIC (compound alone): LB broth, MIC = 90% of growth prevented, OD600 over 12 h
Method: (§1) Minimum inhibitory concentrations of the peptides and antibiotics were determined according to the protocol described by Wiegand et al.. Briefly, two-fold dilution series of cationic peptides in 50 µL volume of LB broth containing 2% DMSO were made in polypropylene 96-well microtiter plates (Ratiolab, L6018123, Dreieich, Germany). The optical density at 600 nm (OD600) of growing bacterial cultures was followed, and at mid-log-phase (OD600 ~0.4–0.5) cultures were diluted to OD600 0.02 and 50 µL was added to the wells, resulting in a total volume of 100 µl, an OD600 of ~0.01 and a DMSO concentration of 1%. An OD600 of ~0.01 accounted for approximately 3 × 10^8 colony forming units per mL (CFU/mL) for A. baumannii, 1 × 10^7 CFU/mL for E. coli and 5 × 10^7 CFU/mL for K. pneumoniae as determined by plate counting.
(§2) In a similar manner, two-fold dilution series of antibiotics were made in polystyrene microtiter plates (Costar, REF3779, Corning NY, United States) in 70 µL volume of LB broth. Then, 50 µL of the antibiotic series was transferred to the peptide containing polypropylene plate, resulting in a checkerboard titration of a peptide on the vertical axis and an antibiotic on the horizontal axis. To some checkerboard assays 15 µg/mL isolated smooth (sm) LPS (from E. coli O55:B5, Sigma-Aldrich, L2880), rough (Ra) LPS (from E. coli EH100, Sigma-Aldrich, L9641) or deep rough (Rd) LPS (from E. coli F583, Sigma-Aldrich, L6893) LPS was added to the LB broth. Mid-log phase cultures were diluted to OD600 0.1 and 10 µL culture was added to each well of the microtiter plate, resulting in a total volume of 110 µL and an OD600 of ~0.01 (~3 × 10^8 CFU/mL), and the OD600 was measured every 15 min for 12 h using the microplate reader. First, the MIC values of the antibiotics alone and the MIC values of the peptides alone were determined as described previously. Similarly, the MIC values of the antibiotics in combination with the different peptides and the MIC values of the peptides in combination with the antibiotics were determined (the fractional inhibitory concentrations (FIC)). […] An FICindex between 0.5 and 1 was considered to be an additive effect.

[3] = circular dichroism; conditions: 5 mM sodium phosphate; pH 7.5; 20 °C; 7.5 uM
[4] = system: sheep red blood cells; conditions: sheep RBCs in DMEM, 1 h, 32 °C, OD405; relative to 1% Triton-X100; negative control polymyxin B nonapeptide
Method: Defibrinated sheep blood was purchased from BioTrading (LOT 21118SG66, Mijdrecht, The Netherlands) and kept at 4 °C. As previously described by Phan et al., red blood cells (RBCs) were pelleted by centrifugation at 600× g for 7 min at 4 °C and gently resuspended in phenol red-free Dulbecco’s Modified Eagle Medium (DMEM, Gibco 21063-029, ThermoFisher Scientific, Waltham MA, United States). This was repeated five times until the supernatant appeared colorless. In the meantime, 10-fold dilution series of the peptides at 50 μM, 5 μM and 0.5 μM in 50 µl DMEM, 1% DMSO were made in polypropylene microtiter plates (Ratiolab, L6018123, Dreieich, Germany). Triton-X100 (1%, Sigma-Aldrich T-8787) and DMSO (10%, Sigma-Aldrich D-8418) were used as positive and negative controls, respectively. Polymyxin B (Sigma-Aldrich, p-1411) and polymyxin B nonapeptide (Sigma-Aldrich, p-2076) were used as reference lytic and non-lytic peptides. Then, 50 µL of RBCs was added to each well. The plate was sealed and incubated at 5% CO2 for one hour at 32 °C, after which the plate was centrifuged at 610× g for 5 min at room temperature. Next, 70 µL supernatant was removed and transferred to a flat-bottomed polystyrene microtiter plate (Costar, REF3779) and the OD405, as a measure of released hemoglobin, was determined using a microplate reader (Synergy H1 Multi-Mode Reader or Synergy HTX Multi-Mode Reader, BioTek). Percentage of hemolysis was calculated using the following equation: (2) % hemolysis=(absorbance test sample)-(absorbance diluent)/(absorbance positive control)-(absorbance diluent)

[5] = normal pooled human serum, 100 µM peptide from 10 mM DMSO stock, 37 °C, samples at 0, 15, 60 min, TCA precipitation, LC-MS TIC vs carbamazepine internal standard, triplicate; Figure 2C
Method: The stability measurements were performed in normal pooled human serum (PHS). The respective peptide was diluted to a final concentration of 100 μM in the aforementioned human serum (from 10 mM peptide stocks in DMSO). Then, 100 μM Carbamazepine was used as an internal standard; 60 μL of aforementioned peptide/Carbamazepine solution in PHS was incubated for 1h at 37 °C/750 rpm and 20 μL samples were taken after 0 min, 15 min and 60 min. Next, 1.5 μL of TCA was added to the sample to precipitate serum proteins. The samples were subsequently incubated on ice for 10 min and then centrifuged (12,000× g, 10 min). Then, 5 μL of supernatant was diluted in 20 μL of H2O/MeCN + 0.1% TFA. The sample was subsequently analyzed by LCMS on an Nucleodur C4-column (Macherey Nagel CC125/4 Nucleodur C4 Gravity, 5 µm) using a linear aqueous MeCN gradient containing FA (0.1%, v/v) and TFA (0.01%, v/v) as ion pair reagent (5–95%, 8 min). Peptides were quantified using the total ion count (TIC) of selected molecular ions. Remaining peptide quantities were calculated by normalizing the peptide peak areas using the internal standard peak areas and subsequently comparing the obtained value with the 0 min measurement. All measurements were performed in triplicate.

[6] = system: zebrafish larvae; assay: Toxicity in zebrafish larvae (survival after caudal vein injection); conditions: survival of uninfected larvae vs vehicle (50% DMSO), five days
Method: Transparent Casper zebrafish (Danio rerio) larvae were infected and treated according to protocols described by Van der Sar et al. and Bernard et al. [43, 44]. In short, zebrafish larvae collected from a laboratory-breeding colony kept at 24 °C and a 12:12 h dark/light regime. Larvae were selected based on morphology according to hours post fertilization (hpf) and kept at 28 °C. All protocols followed the international guidelines on the protection of animals used for scientific purposes specified by the EU Directive 2010/63/EU, which allows zebrafish larvae to be used up to the moment of free-living (5–7 dpf). Larvae were dechorionated at 28 hpf and anaesthetized in 0.2% tricaine methanesulfonate (MS222, Fluka A-5040). Larvae were individually infected with 1 nL, containing approximately 100–150 CFU (1–1.5 CFU/mL), of Gram-negative bacteria via microinjection of the caudal vein as described previously [33]. One hour post infection, larvae were treated with cationic (stapled) peptides, antibiotics or a combination of the two via another microinjection of 1 nL in the caudal vein. To correct dilution of the treatment upon injection in the vein (1 nL in 250 nL zebrafish larvae volume), treatments were diluted in 0.1% phenol red (Sigma-Aldrich, p-0290) in phosphate buffered saline (PBS) to 250 times the concentration as tested in vitro. Zebrafish larvae were kept at 30 °C throughout the experiment and survival of the larvae, based on heartbeat, was determined every 24 h for 5 days.

[7] = system: K. pneumoniae 821; assay: MIC / checkerboard synergy assay; type: cell-based, Klebsiella pneumoniae; conditions: Klebsiella pneumoniae, 821, 12 h; read-out: MIC (compound alone)
Method: as §1, §2

[8] = system: K. pneumoniae 94; assay: MIC / checkerboard synergy assay; type: cell-based, Klebsiella pneumoniae; conditions: Klebsiella pneumoniae, 94, 12 h; read-out: MIC (compound alone)
Method: as §1, §2

[9] = system: K. pneumoniae 613; assay: MIC / checkerboard synergy assay; type: cell-based, Klebsiella pneumoniae; conditions: Klebsiella pneumoniae, 613, 12 h; read-out: MIC (compound alone)
Method: as §1, §2

[10] = system: A. baumannii 1681; assay: MIC / checkerboard synergy assay; type: cell-based, Acinetobacter baumannii; conditions: Acinetobacter baumannii, 1681, 12 h; read-out: MIC (compound alone)
Method: as §1, §2

[11] = system: A. baumannii 2196; assay: MIC / checkerboard synergy assay; type: cell-based, Acinetobacter baumannii; conditions: Acinetobacter baumannii, 2196, 12 h; read-out: MIC (compound alone)
Method: as §1, §2

[12] = system: E. coli gsk12; assay: MIC / checkerboard synergy assay; type: cell-based, Escherichia coli
Method: as §1
(§3) In a similar manner, two-fold dilution series of antibiotics were made in polystyrene microtiter plates (Costar, REF3779, Corning NY, United States) in 70 µL volume of LB broth. […] Mid-log phase cultures were diluted to OD600 0.1 and 10 µL culture was added to each well of the microtiter plate, resulting in a total volume of 110 µL and an OD600 of ~0.01 (~3 × 10^8 CFU/mL), and the OD600 was measured every 15 min for 12 h using the microplate reader. First, the MIC values of the antibiotics alone and the MIC values of the peptides alone were determined as described previously. […]

[13] = system: E. coli 31; assay: MIC / checkerboard synergy assay; type: cell-based; conditions: Escherichia coli, 31, 12 h; read-out: MIC (compound alone)
Method: as §1, §3

## CC[C@H]1OC(=O)[C@H](C)[C@@H](O[C@H]2C[C@@](C)(OC)[C@@H](O)[C@H](C)O2)[C@H](C)[C@@H](O[C@@H]2O[C@H](C)C[C@H](N(C)C)[C@H]2O)[C@](C)(O)C[C@@H](C)C(=O)[C@H](C)[C@@H](O)[C@]1(C)O [Erythromycin, erythromycin]
[1]
  Survival (%): 0.01%

## CC(C)C[C@H](NC(=O)[C@H](CCCNC(=N)N)NC(=O)[C@@H](N)CCCNC(=N)N)C(=O)N[C@@H](Cc1ccccc1)C(=O)N[C@@H](CCCNC(=N)N)C(=O)N[C@@H](CCCNC(=N)N)C(=O)N[C@@]1(C)CCCC=CCCC[C@@](C)(C(N)=O)NC(=O)[C@H](Cc2c[nH]c3ccccc23)NC(=O)[C@H](CCCNC(=N)N)NC(=O)[C@H](CC(C)C)NC1=O [Peptide L6S2] (H-RRLFRR[S5]LRW[S5]-NH2; staple 7-11)
[2]; mean ± SD
  MIC (compound alone): 0.93 ± 0.69 µM
[3]
  helicity: 19%
[4]
  hemolysis at 50 µM: significantly more hemolytic to the RBCs than the negative control
[5]
  stability in human serum (in words): highest stabilities
[6]
  Log2FoldChange compared to vehicle injected: -1.21

## CC[C@H](C)[C@@H]1NC(=O)[C@H](CCCNC(=N)N)NC(=O)[C@H](CCC(N)=O)NC(=O)[C@](C)(NC(=O)[C@@H](NC(=O)[C@H](CCCNC(=N)N)NC(=O)[C@@H](N)CCCCN)[C@@H](C)CC)CCCCCCC=CCCC[C@@](C)(C(=O)N[C@@H](CCCNC(=N)N)C(N)=O)NC(=O)[C@H](Cc2c[nH]c3ccccc23)NC(=O)[C@H](CCCCN)NC(=O)[C@H](CCCCN)NC1=O [Peptide L8S3] (H-KRI[R8]QRIKKW[S5]R-NH2; staple 4-11)
[2]; mean ± SD
  MIC (compound alone): 0.57 ± 0.23 µM
[3]
  helicity: 25%
[4]
  hemolysis at 50 µM: significantly more hemolytic to the RBCs than the negative control
[5]
  stability in human serum (in words): highest stabilities
[6]
  Log2FoldChange compared to vehicle injected: -0.08

## CN[C@H](CC(C)C)C(=O)N[C@H]1C(=O)N[C@@H](CC(N)=O)C(=O)N[C@H]2C(=O)N[C@H]3C(=O)N[C@H](C(=O)N[C@H](C(=O)O)c4cc(O)cc(O)c4-c4cc3ccc4O)[C@H](O)c3ccc(c(Cl)c3)Oc3cc2cc(c3O[C@@H]2O[C@H](CO)[C@@H](O)[C@H](O)[C@H]2O[C@H]2C[C@](C)(N)[C@H](O)[C@H](C)O2)Oc2ccc(cc2Cl)[C@H]1O [Vancomycin, vancomycin]
[7]
  MIC: 197 ± 194 µM
[8]
  MIC: 263 ± 180 µM
[9]
  MIC: 269 ± 140 µM
[2]; Acinetobacter baumannii, 1757, 12 h, read-out: MIC (compound alone)
  MIC: 5.98 ± 4.55 µM
[2]; Acinetobacter baumannii, 1757, LB medium with soluble deep rough LPS 15 µg/ml, mean ± SD, read-out: MIC, + Rd-LPS (F583)
  MIC: 5.66 ± 4.15 µM
[2]; Acinetobacter baumannii, 1757, LB medium with soluble rough LPS 15 µg/ml, mean ± SD, read-out: MIC, + Ra-LPS (EH100)
  MIC: 9.86 ± 7.36 µM
[2]; Acinetobacter baumannii, 1757, LB medium with soluble smooth LPS 15 µg/ml, mean ± SD, read-out: MIC, + Sm-LPS (055:B5)
  MIC: 5.88 ± 3.56 µM
[2]; Acinetobacter baumannii, 1757, LB medium without supplement (Table S4), mean ± SD, read-out: MIC, No supplement
  MIC: 3.03 ± 2.52 µM
[10]
  MIC: 19 ± 4.56 µM
[11]
  MIC: 34.7 ± 24 µM
[12]; Escherichia coli, GSK12, 12 h, read-out: MIC (compound alone)
  MIC: 78.7 ± 5.3 µM
[12]; compound alone, LB broth, MIC = 90% of growth prevented, OD600 over 12 h, mean ± SD
  MIC (compound alone): 78.65 ± 5.3 µM
[6]
  Log2FoldChange compared to vehicle injected: -0.26
[13]
  MIC: 24.5 ± 8.81 µM
